Experimental data taken from patent publication US4382889A, “Epoxysuccinic acid derivatives” (Taisho Pharmaceutical Co., Ltd., priority 1979, dated 1983).
Structures can show the parent of a compound that is named as a salt.

Legend:
papain = biological target: T1, papain (Carica papaya, UniProt P00784); test: Papain inhibitory activity (method of K. Hanada et al); format: biochemical; details: papain 80 ug/ml, Sigma, 2 x cry.
T1 construct: purchased Sigma Chem. Co
T1 sequence (P00784 134-345): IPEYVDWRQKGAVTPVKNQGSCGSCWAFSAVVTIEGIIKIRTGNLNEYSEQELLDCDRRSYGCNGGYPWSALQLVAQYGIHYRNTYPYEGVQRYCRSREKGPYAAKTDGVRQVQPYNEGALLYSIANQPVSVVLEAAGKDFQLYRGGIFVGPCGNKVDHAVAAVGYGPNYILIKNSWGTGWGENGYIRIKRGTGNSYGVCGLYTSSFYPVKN
Method: Papain inhibitory activity of the compounds of the present invention was assayed by the method of K. Hanada et al, [Argric. Biol. Chem., 42, No. 3, 523(1978)] using papain (80 ug/ml, Sigma Chem. Co., 2 x cry.).

[1] = Concentration of test compound in rat plasma after subcutaneous administration; format: in vivo; details: sc, 50 mg/kg, an hour after administration
Method: The compounds of the present invention are better absorbed by the subcutaneous route in mammals such as rats or rabbits, as compared with the epoxysuccinic acid derivatives of the German Patent Laid Open Application described above and Chemical Abstracts, 87, 68129a (1977). To determine absorption, these compounds were administered subcutaneously to rat at a dose of 50 mg/kg, and the concentration of the test compound in rat plasma at an hour after the administration was shown in Table 1.

[2] = biological target: T2, calcium-activated neutral thiolprotease (CANP) (Gallus gallus, UniProt P00789); test: CANP inhibitory activity (method of Ishiura et al); format: biochemical; details: 50% inhibition as molar ratio to the enzyme; CANP from muscle of hereditary muscular dystrophy chicken
T2 construct: CANP prepared from a muscle of hereditary muscular dystrophy chicken; from tissue; host or cells: muscle of hereditary muscular dystrophy chicken
T2 sequence (P00789 1-705): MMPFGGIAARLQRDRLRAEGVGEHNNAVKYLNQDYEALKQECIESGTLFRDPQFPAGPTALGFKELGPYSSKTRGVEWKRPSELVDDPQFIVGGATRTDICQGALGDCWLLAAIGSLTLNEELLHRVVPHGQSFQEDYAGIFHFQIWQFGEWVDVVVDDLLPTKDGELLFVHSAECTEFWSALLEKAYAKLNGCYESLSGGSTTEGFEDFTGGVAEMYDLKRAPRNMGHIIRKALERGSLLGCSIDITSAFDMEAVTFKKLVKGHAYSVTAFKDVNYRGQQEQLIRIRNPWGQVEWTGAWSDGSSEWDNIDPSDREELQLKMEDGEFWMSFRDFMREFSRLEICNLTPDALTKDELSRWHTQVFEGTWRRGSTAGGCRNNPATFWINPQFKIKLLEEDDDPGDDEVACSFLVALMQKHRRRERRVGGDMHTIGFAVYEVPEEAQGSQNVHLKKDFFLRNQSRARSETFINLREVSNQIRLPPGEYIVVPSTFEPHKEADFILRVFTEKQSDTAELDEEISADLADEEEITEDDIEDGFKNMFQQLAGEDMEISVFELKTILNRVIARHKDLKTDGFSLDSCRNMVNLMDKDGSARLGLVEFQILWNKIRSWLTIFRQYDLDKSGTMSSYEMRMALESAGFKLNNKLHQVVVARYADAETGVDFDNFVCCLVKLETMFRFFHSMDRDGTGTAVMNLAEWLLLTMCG
Method: Their muscular dystrophy inhibitory activity was assayed by the method of Ishiura et al, [J. of Biochem., 84, 225(1978)] using CANP prepared from a muscle of hereditary muscular dystrophy chicken, and the resulting value for 50% inhibition in the molar ratios for the enzyme expressed as ID50 (mole/mole) is shown in Table 1.

Structure (SMILES) | Papain ID50 (amount of inhibitor for 50% inhibition) (papain) | concentration at 1 h [1] | CANP Inhibitory Activity ID50 (mole/mole) [2]
CC[C@H](C)[C@H](NC(=O)C1OC1C(=O)OCc1ccccc1)C(=O)N(C)Cc1ccccc1 (mixture of isomers) [Compound 12, N-[N'-(DL-3-trans-benzyloxycarbonyloxirane-2-carbonyl)-L-isoleucyl]-N-methylbenzylamine] | 0.260 µg | 1300 ng/mL | 65 mole/mole
CC(C)C[C@H](NC(=O)C1OC1C(=O)O)C(=O)NC(C)C (mixture of isomers) [Compound 15, N-[N'-(DL-3-trans-carboxyoxirane-2-carbonyl)-L-leucyl]isopropylamine potassium salt] | 0.112 µg | 20000 ng/mL | 35 mole/mole
CC(C)C[C@H](NC(=O)C1OC1C(=O)O)C(=O)NCCc1ccccc1 (mixture of isomers) [Compound 16, N-[N'-(DL-3-trans-carboxyoxirane-2-carbonyl)-L-leucyl]phenethylamine potassium salt] | 0.123 µg | 12000 ng/mL | 90 mole/mole
COC(=O)[C@@H]1CCCN1C(=O)[C@H](CC(C)C)NC(=O)C1OC1C(=O)OCc1ccccc1 (mixture of isomers) [Compound 19, N-(DL-3-trans-benzyloxycarbonyloxirane-2-carbonyl)-L-leucyl-L-proline methyl ester] | 0.123 µg | 1500 ng/mL | 23 mole/mole
CC(C)C[C@H](NC(=O)C1OC1C(=O)OCc1ccccc1)C(=O)N[C@@H](CCCNC(=O)OCc1ccccc1)C(=O)OCc1ccccc1 (mixture of isomers) [Compound 30, N-(DL-3-trans-benzyloxycarbonyloxirane-2-carbonyl)-L-leucyl-δ-carbobenzoxy-L-ornithine benzyl ester] | 0.391 µg | 2000 ng/mL | 100 mole/mole
COC(=O)[C@H](CCCN=C(N)N)NC(=O)[C@H](CC(C)C)NC(=O)C1OC1C(=O)O (mixture of isomers) [Compound 43, N-(DL-3-transcarboxyoxirane-2-carbonyl)-L-leucyl-L-arginine methyl ester] | 0.195 µg | 7000 ng/mL | 100 mole/mole
CC(C)C[C@H](NC(=O)[C@H](CC(C)C)NC(=O)C1OC1C(=O)O)C(=O)O (mixture of isomers) [Compound 45, N-(DL-3-trans-carboxyoxirane-2-carbonyl)-L-leucyl-L-leucine] | 0.236 µg | 15000 ng/mL | 64 mole/mole
CCOC(=O)[C@H]1O[C@@H]1C(=O)O (relative stereo) [A, Ethyl hydrogen epoxysuccinate, reference compound] |  | < 1000 ng/mL | 5,400 mole/mole
O=C(O)[C@H]1O[C@@H]1C(=O)OCc1ccccc1 (relative stereo) [B, Benzyl hydrogen epoxysuccinate, reference compound] |  | < 1000 ng/mL | 410 mole/mole
CCOC(=O)C1OC1C(=O)N[C@@H](CC(C)C)C(=O)OCc1ccccc1 (stereo partly drawn) [C, N--(3ethoxy-carbonyloxirane-2-carbonyl)-L-leucine benzyl ester, reference compound] |  | < 1000 ng/mL | 580 mole/mole
COC(=O)[C@H](CC(C)C)NC(=O)[C@H](Cc1ccccc1)NC(=O)C1OC1C(=O)OCc1ccccc1 (stereo partly shown) [Compound 36] | 0.595 µg | 1800 ng/mL | 200 mole/mole
COC(=O)[C@H](C)NC(=O)[C@@H](NC(=O)C1OC1C(=O)OCc1ccccc1)C(C)C (stereo partly shown) [Compound 42] | 0.595 µg | 1100 ng/mL | 120 mole/mole
O=C(O)C1OC1C(=O)N[C@@H](Cc1ccccc1)C(=O)OCc1ccccc1 (stereo partly drawn) [D, N--(3carboxyoxirane-2-carbonyl)-L-phenylalanine benzyl ester, reference compound] |  | < 1000 ng/mL | 574 mole/mole
CC(C)C[C@H](NC(=O)C1OC1C(=O)O)C(=O)O (stereo partly drawn) [E, N--(3carboxyoxirane-2-carbonyl)-L-leucine, reference compound] |  | < 1000 ng/mL | 4,600 mole/mole
